# According to patent US20170190671A1, “BIS(ARYL)CATECHOL DERIVATIVES AS HERBICIDES” (E I DU PONT DE NEMOURS AND COMPANY, priority 2014, published 2017):
# Experiments:
# Type in all cases: in vivo
# [1] = test system: morningglory (Ipomoea coccinea); test: Test C postemergence; conditions: Ipomoea, post-emergence, 336 h, Postemergence, scale 0 to 100, read-out: Plant response rating, Morningglory
# Outline: (§1)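 Treatment is preemergence to seeds in a loam and sand soil, or postemergence to plants 2 to 18 cm high in a peat moss-based medium. The compound is delivered in a non-phytotoxic solvent mixture including surfactant. Effects are judged by eye 13 to 15 days later on a 0 to 100 scale.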
# kochia (Kochia scoparia) = test: Test C postemergence; conditions: Bassia scoparia, post-emergence, Postemergence, scale 0 to 100, read-out: Plant response rating, Kochia
# Outline: as §1
# [2] = test system: galium (catchweed bedstraw, Galium aparine); test: Test C postemergence; conditions: Galium, post-emergence, 336 h, Postemergence, scale 0 to 100, read-out: Plant response rating, Galium
# Outline: as §1
# [3] = test system: winter wheat (Triticum aestivum); test: Test C postemergence; conditions: Triticum aestivum, post-emergence, 336 h, Postemergence, scale 0 to 100, read-out: Plant response rating, Wheat
# Outline: as §1
# [4] = test system: large (Lg) crabgrass (Digitaria sanguinalis); test: Test C postemergence; conditions: Digitaria sanguinalis, post-emergence, 336 h, Postemergence, scale 0 to 100, read-out: Plant response rating, Crabgrass, Large
# Outline: as §1
# [5] = test system: velvetleaf (Abutilon theophrasti); test: Test C postemergence; conditions: Abutilon theophrasti, post-emergence, Postemergence, scale 0 to 100, read-out: Plant response rating, Velvetleaf
# Outline: as §1
# [6] = test system: giant foxtail (Setaria faberii); test: Test C preemergence; conditions: Setaria faberi, pre-emergence, 336 h, preemergence, scale 0 to 100, read-out: Plant response rating, Foxtail, Giant
# Outline: as §1
# [7] = test system: pigweed (Amaranthus retroflexus); test: Test C preemergence; conditions: Amaranthus retroflexus, pre-emergence, 336 h, preemergence, scale 0 to 100, read-out: Plant response rating, Pigweed
# Outline: as §1
# corn (Zea mays) = test: Test C preemergence; conditions: Zea mays, pre-emergence, 336 h, preemergence, scale 0 to 100
# Outline: as §1
# [8] = test system: morningglory (Ipomoea coccinea); test: Test C preemergence; conditions: Ipomoea, pre-emergence, 336 h, preemergence, scale 0 to 100, read-out: Plant response rating, Morningglory
# Outline: as §1
# soybean (Glycine max) = test: Test C preemergence; conditions: Glycine max, pre-emergence, preemergence, scale 0 to 100, read-out: Plant response rating, Soybean
# Outline: as §1
# [9] = test system: galium (catchweed bedstraw, Galium aparine); test: Test C preemergence; conditions: Galium, pre-emergence, 336 h, preemergence, scale 0 to 100, read-out: Plant response rating, Galium
# Outline: as §1
# [10] = test system: winter wheat (Triticum aestivum); test: Test C preemergence; conditions: Triticum aestivum, pre-emergence, 336 h, preemergence, scale 0 to 100, read-out: Plant response rating, Wheat
# Outline: as §1
# [11] = test system: yellow nutsedge (Cyperus esculentus); test: Test C preemergence; conditions: Cyperus, pre-emergence, 336 h, preemergence, scale 0 to 100, read-out: Plant response rating, Nutsedge, Yellow
# Outline: as §1
# [12] = test system: lambsquarters (Chenopodium album); test: Test C preemergence; conditions: Chenopodium album, pre-emergence, 336 h, preemergence, scale 0 to 100, read-out: Plant response rating, Lambsquarters
# Outline: as §1
# [13] = test system: large (Lg) crabgrass (Digitaria sanguinalis); test: Test C preemergence; conditions: Digitaria sanguinalis, pre-emergence, 336 h, preemergence, scale 0 to 100, read-out: Plant response rating, Crabgrass, Large
# Outline: as §1
# [14] = test system: velvetleaf (Abutilon theophrasti); test: Test C preemergence; conditions: Abutilon theophrasti, pre-emergence, preemergence, scale 0 to 100, read-out: Plant response rating, Velvetleaf
# Outline: as §1
# [15] = test system: barnyardgrass (Echinochloa crus-galli); test: Test C preemergence; conditions: Echinochloa crus-galli, pre-emergence, preemergence, scale 0 to 100, read-out: Plant response rating, Barnyardgrass
# Outline: as §1
# [16] = test system: ragweed (common ragweed, Ambrosia elatior); test: Test C preemergence; conditions: Ambrosia artemisiifolia, pre-emergence, 336 h, preemergence, scale 0 to 100, read-out: Plant response rating, Ragweed
# Outline: as §1
# [17] = test system: johnsongrass (Sorghum halepense); test: Test C preemergence; conditions: Sorghum halepense, pre-emergence, 336 h, preemergence, scale 0 to 100, read-out: Plant response rating, Johnsongrass
# Outline: as §1
# [18] = test system: oilseed rape (Brassica napus); test: Test C preemergence; conditions: Brassica napus, pre-emergence, preemergence, scale 0 to 100, read-out: Plant response rating, Oilseed Rape
# Outline: as §1
# [19] = test system: blackgrass (Alopecurus myosuroides); test: Test C preemergence; conditions: Alopecurus myosuroides, pre-emergence, 336 h, preemergence, scale 0 to 100, read-out: Plant response rating, Blackgrass
# Outline: as §1
smiles,measurement,setting,value
"Fc1cnc(Oc2c(Cl)cccc2Oc2ncc(Cl)cn2)nc1 [Compound 18, 5-chloro-2-[5-chloro-6-[(5-fluoro-2-pyrimidinyl)oxy]phenoxy]pyrimidine]",pest or weed control at 31 g/ha,[1]; 31 g ai/ha,75%
same,pest or weed control at 62 g/ha,[1]; 62 g ai/ha,70%
same,pest or weed control at 125 g/ha,[1]; 125 g ai/ha,85%
same,pest or weed control at 250 g/ha,[1]; 250 g ai/ha,95%
same,pest or weed control at 31 g/ha,kochia (Kochia scoparia); 31 g ai/ha,30%
same,pest or weed control at 62 g/ha,kochia (Kochia scoparia); 62 g ai/ha,50%
same,pest or weed control at 125 g/ha,kochia (Kochia scoparia); 125 g ai/ha,85%
same,pest or weed control at 250 g/ha,kochia (Kochia scoparia); 250 g ai/ha,95%
same,pest or weed control at 31 g/ha,[2]; 31 g ai/ha,70%
same,pest or weed control at 62 g/ha,[2]; 62 g ai/ha,90%
same,pest or weed control at 125 g/ha,[2]; 125 g ai/ha,95%
same,pest or weed control at 250 g/ha,[2]; 250 g ai/ha,95%
same,plant injury at 31 g/ha,[3]; 31 g ai/ha,0%
same,plant injury at 62 g/ha,[3]; 62 g ai/ha,0%
same,plant injury at 125 g/ha,[3]; 125 g ai/ha,0%
same,plant injury at 250 g/ha,[3]; 250 g ai/ha,15%
same,pest or weed control at 31 g/ha,[4]; 31 g ai/ha,5%
same,pest or weed control at 62 g/ha,[4]; 62 g ai/ha,5%
same,pest or weed control at 125 g/ha,[4]; 125 g ai/ha,55%
same,pest or weed control at 250 g/ha,[4]; 250 g ai/ha,70%
same,pest or weed control at 31 g/ha,[5]; 31 g ai/ha,45%
same,pest or weed control at 62 g/ha,[5]; 62 g ai/ha,60%
same,pest or weed control at 125 g/ha,[5]; 125 g ai/ha,70%
same,pest or weed control at 250 g/ha,[5]; 250 g ai/ha,85%
same,pest or weed control at 31 g/ha,[6]; 31 g ai/ha,98%
same,pest or weed control at 62 g/ha,[6]; 62 g ai/ha,100%
same,pest or weed control at 125 g/ha,[6]; 125 g ai/ha,100%
same,pest or weed control at 31 g/ha,[7]; 31 g ai/ha,100%
same,pest or weed control at 62 g/ha,[7]; 62 g ai/ha,100%
same,pest or weed control at 125 g/ha,[7]; 125 g ai/ha,100%
same,"Corn plant response rating (crop injury, 0 = no effect, 100 = complete kill) at 31 g/ha",corn (Zea mays); 31 g ai/ha,10%
same,"Corn plant response rating (crop injury, 0 = no effect, 100 = complete kill) at 62 g/ha",corn (Zea mays); 62 g ai/ha,40%
same,"Corn plant response rating (crop injury, 0 = no effect, 100 = complete kill) at 125 g/ha",corn (Zea mays); 125 g ai/ha,60%
same,pest or weed control at 31 g/ha,[8]; 31 g ai/ha,10%
same,pest or weed control at 62 g/ha,[8]; 62 g ai/ha,60%
same,pest or weed control at 125 g/ha,[8]; 125 g ai/ha,70%
same,plant injury at 31 g/ha,soybean (Glycine max); 31 g ai/ha,60%
same,plant injury at 62 g/ha,soybean (Glycine max); 62 g ai/ha,80%
same,plant injury at 125 g/ha,soybean (Glycine max); 125 g ai/ha,90%
same,plant injury at 250 g/ha,soybean (Glycine max); 250 g ai/ha,90%
same,pest or weed control at 31 g/ha,[9]; 31 g ai/ha,100%
same,pest or weed control at 62 g/ha,[9]; 62 g ai/ha,100%
same,pest or weed control at 125 g/ha,[9]; 125 g ai/ha,100%
same,plant injury at 31 g/ha,[10]; 31 g ai/ha,0%
same,plant injury at 62 g/ha,[10]; 62 g ai/ha,15%
same,plant injury at 125 g/ha,[10]; 125 g ai/ha,70%
same,plant injury at 250 g/ha,[10]; 250 g ai/ha,85%
same,pest or weed control at 31 g/ha,[11]; 31 g ai/ha,0%
same,pest or weed control at 62 g/ha,[11]; 62 g ai/ha,25%
same,pest or weed control at 125 g/ha,[11]; 125 g ai/ha,25%
same,pest or weed control at 31 g/ha,[12]; 31 g ai/ha,85%
same,pest or weed control at 62 g/ha,[12]; 62 g ai/ha,95%
same,pest or weed control at 125 g/ha,[12]; 125 g ai/ha,95%
same,pest or weed control at 31 g/ha,[13]; 31 g ai/ha,100%
same,pest or weed control at 62 g/ha,[13]; 62 g ai/ha,100%
same,pest or weed control at 125 g/ha,[13]; 125 g ai/ha,100%
same,pest or weed control at 31 g/ha,[14]; 31 g ai/ha,85%
same,pest or weed control at 62 g/ha,[14]; 62 g ai/ha,100%
same,pest or weed control at 125 g/ha,[14]; 125 g ai/ha,100%
same,pest or weed control at 250 g/ha,[14]; 250 g ai/ha,100%
same,pest or weed control at 31 g/ha,[15]; 31 g ai/ha,75%
same,pest or weed control at 62 g/ha,[15]; 62 g ai/ha,100%
same,pest or weed control at 125 g/ha,[15]; 125 g ai/ha,100%
same,pest or weed control at 250 g/ha,[15]; 250 g ai/ha,100%
same,pest or weed control at 31 g/ha,[16]; 31 g ai/ha,85%
same,pest or weed control at 62 g/ha,[16]; 62 g ai/ha,100%
same,pest or weed control at 125 g/ha,[16]; 125 g ai/ha,95%
same,pest or weed control at 250 g/ha,[16]; 250 g ai/ha,95%
same,pest or weed control at 31 g/ha,[17]; 31 g ai/ha,50%
same,pest or weed control at 62 g/ha,[17]; 62 g ai/ha,70%
same,pest or weed control at 125 g/ha,[17]; 125 g ai/ha,90%
same,plant injury at 31 g/ha,[18]; 31 g ai/ha,100%
same,plant injury at 62 g/ha,[18]; 62 g ai/ha,100%
same,plant injury at 125 g/ha,[18]; 125 g ai/ha,100%
same,plant injury at 250 g/ha,[18]; 250 g ai/ha,100%
same,pest or weed control at 31 g/ha,[19]; 31 g ai/ha,15%
same,pest or weed control at 62 g/ha,[19]; 62 g ai/ha,90%
same,pest or weed control at 125 g/ha,[19]; 125 g ai/ha,95%
